From patent publication US20230339896A1, “HPK1 INHIBITORS AND USES THEREOF” (QILU REGOR THERAPEUTICS INC., priority 2020, published 2023)
pIC50: −log10 of the molar value. Read-outs that look alike come from different tables or passages of the source.

Target: HPK1 (Homo sapiens (Human), UniProt Q92918)
Test: HPK1 biochemical assay (ADP-GLO Kinase Assay)
Text: This example used the ADP-GLO™ Kinase Assay to measure the effect of potential HPK1 inhibitor compounds on HPK1 kinase activity.
The ADP-GLO™ Kinase Assay (Promega Corp., Madison, WI) measures ADP formed from a kinase reaction. According to the manufacture, the ADP formed in a kinase assay is first converted into ATP, which is then used to generate light in a luciferase reaction. The luminescence generated correlates with kinase activity. An exemplary experimental setting is described below, though minor adjustments can be made in individual assays.
Serial 3-fold dilution of compoounds from 10 µM (top concentration) to 0.508 nM (lowest concentration). Positive control is 10 µM Reference + enzyme + substrate. Negative control is 1% DMSO + enzyme + substrate.
40 mM Tris pH7.5; 20 mM MgC12, 0.1 mg/ml BSA, 50 µM DTT Buffer stock
• 1) The compounds were diluted to 1 mM, by mixing 10 µL of 10 mM respective compound stocks with 90 µL of DMSO. • 2) The compounds were then diluted 3-fold for 10 doses (5 µL to 10 µL dilution) by BRAVO. The top compound conc. was 1 mM (100×), DMSO Conc. was 100%. • 3) Transfer 100 nL of each diluted compound sample to 384-well plate (Corning-4512) by ECHO. • 4) Centrifuge the plate at 1,500 rpm for 1 minute.
20 µM ATP, 0.2 µg/µL MBP in Kinase Buffer (final concentration: 10 µM ATP, 0.1 µg/µL MBP)
• 5. Preparation of 2× HPK1 working solution with assay buffer. HPK1 final concentration was 0.6 ng/µL. […] Add 5 µL/well of 2× HPK1 working solution, Centrifuge at 1,500 rpm for 1 minute. • 7. Add 5 µL/well of 2× ATP-Substrate, Centrifuge at 1,500 rpm for 1 minute. • 8. Incubate at 25° C. for 1 hour (or 6 hours for compounds with high potency). • 9. Add 5 µL/well ADP-GLO™ Reagent to stop the kinase reaction and deplete the unconsumed ATP. Centrifuge at 1,500 rpm for 1 minute. Incubate at 25° C. for 40 min. • 10. Add 10 µL of Kinase Detection Reagent to convert ADP to ATP. Centrifuge at 1,500 rpm for 1 minute. Incubate at 25° C. for 40 min. • 11. Record luminescence signal on an Envision plate reader (384-CTG).
The percent (%) inhibition at each concentration of compound is calculated based on and relative to the signal in the High and Low control wells contained within each assay plate. […] The concentrations and % inhibition values for tested compounds were plotted and the concentration of compound required for 50% inhibition (IC50) was determined with a Three-parameter logistic dose response equation. The endpoint value (IC50) for the reference peptide/compound was evaluated in each experiment as a quality control measure. If the endpoint value was within 3-fold of the expected value, then the experiment was deemed acceptable.

[1] = ADP-GLO, 10 µM ATP, MBP substrate, read-out: HPK1 IC50
[2] = Table 12-1, read-out: HPK1 inhibition activities

HPK1, sequence (Q92918 whole entry): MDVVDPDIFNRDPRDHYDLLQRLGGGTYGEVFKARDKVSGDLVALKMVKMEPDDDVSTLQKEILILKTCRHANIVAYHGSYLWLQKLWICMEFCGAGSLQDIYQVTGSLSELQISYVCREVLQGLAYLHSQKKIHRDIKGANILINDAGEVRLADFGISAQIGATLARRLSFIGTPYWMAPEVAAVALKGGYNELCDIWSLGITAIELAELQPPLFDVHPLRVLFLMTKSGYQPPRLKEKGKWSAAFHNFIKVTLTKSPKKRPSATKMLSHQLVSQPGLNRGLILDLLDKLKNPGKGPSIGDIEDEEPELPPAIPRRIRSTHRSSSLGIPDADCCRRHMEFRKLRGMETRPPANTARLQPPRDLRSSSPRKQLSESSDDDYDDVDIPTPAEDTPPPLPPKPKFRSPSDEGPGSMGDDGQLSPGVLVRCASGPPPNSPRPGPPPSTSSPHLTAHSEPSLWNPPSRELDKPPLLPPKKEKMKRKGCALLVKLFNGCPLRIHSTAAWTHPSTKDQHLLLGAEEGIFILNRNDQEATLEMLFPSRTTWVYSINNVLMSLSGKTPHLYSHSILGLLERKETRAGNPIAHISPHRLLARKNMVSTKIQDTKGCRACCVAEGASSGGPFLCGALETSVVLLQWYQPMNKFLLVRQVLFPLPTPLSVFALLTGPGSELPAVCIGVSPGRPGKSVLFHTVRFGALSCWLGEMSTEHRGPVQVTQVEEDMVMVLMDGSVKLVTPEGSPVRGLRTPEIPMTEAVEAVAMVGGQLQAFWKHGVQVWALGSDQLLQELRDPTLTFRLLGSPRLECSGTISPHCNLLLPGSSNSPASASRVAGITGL

Row | pIC50 [1] | pIC50 [2] | Compound
1 | 9.70 | > 9.00 | COc1cc2c(cc1Nc1ncc(Cl)c(N3CC(C)(CC(=O)O)c4ccccc43)n1)CN(C)CC2 (single isomer, unassigned) [Example 2, (R)-2-(1-(5-chloro-2-((6-methoxy-2-methyl-1,2,3,4-tetrahydroisoquinolin-7-yl)amino)pyrimidin-4-yl)-3-methylindolin-3-yl)acetic acid or (S)-2-(1-(5-chloro-2-((6-methoxy-2-methyl-1,2,3,4-tetrahydroisoquinolin-7-yl)amino)pyrimidin-4-yl)-3-methylindolin-3-yl)acetic acid]
2 | 9.00 |  | COc1cc2c(cc1Nc1ncc(Cl)c(N3CC(C(=O)O)c4ccccc43)n1)CN(C)CC2 (centres unmarked) [Compound 7, reference compound]
3 | 9.30 | > 9.00 | COc1cc2c(cc1Nc1ncc(Cl)c(N3CC(C)(CC(=O)O)c4ccccc43)n1)CN(C)CC2 (centres unmarked) [Example 1, 2-(1-(5-chloro-2-((6-methoxy-2-methyl-1,2,3,4-tetrahydroisoquinolin-7-yl)amino)pyrimidin-4-yl)-3-methylindolin-3-yl)acetic acid]
4 | 9.15 | > 9.00 | CN1CCc2cc(F)c(Nc3ncc(Cl)c(N4CC(C)(CC(=O)O)c5ccccc54)n3)cc2C1 (centres unmarked) [Example 4, 2-(1-(5-chloro-2-((6-fluoro-2-methyl-1,2,3,4-tetrahydroisoquinolin-7-yl)amino)pyrimidin-4-yl)-3-methylindolin-3-yl)acetic acid]

Second part, the compound before the results:

Row | Compound | pIC50 [1] | pIC50 [2]
5 | CN1CCc2cc(F)c(Nc3ncc(Cl)c(N4C[C@](C)(CC(=O)O)c5ccccc54)n3)cc2C1 (single isomer, unassigned) [Example 5, (R)-2-[1-[5-chloro-2-[(6-fluoro-2-methyl-3,4-dihydro-1H-isoquinolin-7-yl)amino]pyrimidin-4-yl]-3-methyl-indolin-3-yl]acetic acid or (S)-2-[1-[5-chloro-2-[(6-fluoro-2-methyl-3,4-dihydro-1H-isoquinolin-7-yl)amino]pyrimidin-4-yl]-3-methyl-indolin-3-yl]acetic acid] | 9.70 | > 9.00
6 | COc1cc2c(cc1Nc1ncc(Cl)c(N3CC(CC(=O)O)c4ccccc43)n1)CN(C)CC2 (centres unmarked) [Compound 8, reference compound] | 8.82 | 
7 | COc1cc2c(cc1Nc1ncc(Cl)c(N3CC(C)(CC(=O)O)c4ccc(F)cc43)n1)CN(C)CC2 (centres unmarked) [Compound 10, reference compound] | 9.30 | 
